Where two headings read alike, the source gives them in different places.
Key:
Experiment in all cases: Test F pre-/postemergence plant response
Assay type in all cases: in vivo
[1] = tested on: Italian ryegrass (Lolium multiflorum); settings: Lolium multiflorum, scale 0 to 100, read-out: Plant response rating, Ryegrass, Italian; for pest or weed control at 16 g/ha: 16 g ai/ha; for pest or weed control at 31 g/ha: 31 g ai/ha; for pest or weed control at 125 g/ha: 125 g ai/ha
Procedure, shortened: (§1)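 Plant response is a visual score from 0, meaning no effect, to 100, meaning complete control, assigned by comparison with untreated plants. Ratings were made 14 to 21 days after preemergence application to seeded silt loam or postemergence application to plants at the 1- to 4-leaf stage.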

[2] = tested on: arrowleaf sida (Sida rhombifolia); settings: Sida rhombifolia, scale 0 to 100, read-out: Plant response rating, Arrowleaf Sida
Procedure, shortened: as §1

[3] = tested on: barnyardgrass (Echinochloa crus-galli); settings: Echinochloa crus-galli, scale 0 to 100, read-out: Plant response rating, Barnyardgrass
Procedure, shortened: as §1

[4] = tested on: hairy beggarticks (Bidens pilosa); settings: Bidens pilosa, scale 0 to 100, read-out: Plant response rating, Beggarticks
Procedure, shortened: as §1

[5] = tested on: kochia (Kochia scoparia); settings: Bassia scoparia, pre-emergence, scale 0 to 100, read-out: Plant response rating, Kochia
Procedure, shortened: as §1

[6] = tested on: large (Lg) crabgrass (Digitaria sanguinalis); settings: Digitaria sanguinalis, pre-emergence, scale 0 to 100, read-out: Plant response rating, Crabgrass, Large
Procedure, shortened: as §1

[7] = tested on: nightshade (eastern black nightshade, Solanum ptycanthum); settings: Solanum, pre-emergence, scale 0 to 100, read-out: Plant response rating, Nightshade
Procedure, shortened: as §1

[8] = tested on: ragweed (common ragweed, Ambrosia elatior); settings: Ambrosia artemisiifolia, pre-emergence, scale 0 to 100, read-out: Plant response rating, Ragweed
Procedure, shortened: as §1

[9] = tested on: surinam grass (Brachiaria decumbens); settings: Urochloa decumbens, pre-emergence, scale 0 to 100, read-out: Plant response rating, Surinam Grass
Procedure, shortened: as §1

[10] = tested on: velvetleaf (Abutilon theophrasti); settings: Abutilon theophrasti, pre-emergence, scale 0 to 100, read-out: Plant response rating, Velvetleaf
Procedure, shortened: as §1

[11] = tested on: yellow nutsedge (Cyperus esculentus); settings: Cyperus, pre-emergence, scale 0 to 100, read-out: Plant response rating, Nutsedge, Yellow
Procedure, shortened: as §1

[12] = post-emergence, 8 g ai/ha Postemergence
[13] = pre-emergence, 8 g ai/ha Preemergence
[14] = post-emergence, 16 g ai/ha Postemergence
[15] = post-emergence, 31 g ai/ha Postemergence
[16] = post-emergence, 62 g ai/ha Postemergence
[17] = post-emergence, 125 g ai/ha Postemergence
[18] = pre-emergence, 16 g ai/ha Preemergence
[19] = pre-emergence, 31 g ai/ha Preemergence
[20] = pre-emergence, 62 g ai/ha Preemergence
[21] = pre-emergence, 125 g ai/ha Preemergence

For `FC(F)(F)c1cc(-c2ccccc2Oc2ncc(Cl)cn2)no1` [Compound 200, 5-chloro-2-[2-[5-(trifluoromethyl)-3-isoxazolyl]phenoxy]pyrimidine], the pest or weed control at 8 g/ha [1, 12] was 0%, the pest or weed control at 16 g/ha ([1]; post-emergence, Postemergence) was 0% and the pest or weed control at 31 g/ha ([1]; post-emergence, Postemergence) was 0%. For the same compound, the pest or weed control at 62 g/ha ([1]; post-emergence, 62 g ai/ha, Postemergence) was 15%, the pest or weed control at 125 g/ha ([1]; post-emergence, Postemergence) was 20% and the pest or weed control at 8 g/ha [1, 13] was 0%. It also gave a pest or weed control at 16 g/ha ([1]; pre-emergence, Preemergence) of 0%, a pest or weed control at 31 g/ha ([1]; pre-emergence, Preemergence) of 0% and a pest or weed control at 125 g/ha ([1]; pre-emergence, Preemergence) of 40%. For the same compound, the pest or weed control at 62 g/ha ([1]; pre-emergence, Preemergence) was 20%, the pest or weed control at 8 g/ha [2, 12] was 65% and the pest or weed control at 16 g/ha [2, 14] was 75%. For the same compound, the pest or weed control at 31 g/ha [2, 15] was 85%, the pest or weed control at 62 g/ha [2, 16] was 95% and the pest or weed control at 125 g/ha [2, 17] was 95%. It also gave a pest or weed control at 8 g/ha [2, 13] of 0%, a pest or weed control at 16 g/ha [2, 18] of 65% and a pest or weed control at 31 g/ha [2, 19] of 100%. For the same compound, the pest or weed control at 62 g/ha [2, 20] was 100%, the pest or weed control at 125 g/ha [2, 21] was 100% and the pest or weed control at 8 g/ha [3, 12] was 0%. It also gave a pest or weed control at 16 g/ha [3, 14] of 0%, a pest or weed control at 31 g/ha [3, 15] of 0% and a pest or weed control at 62 g/ha [3, 16] of 15%. For the same compound, the pest or weed control at 125 g/ha [3, 17] was 25%, the pest or weed control at 8 g/ha [3, 13] was 0% and the pest or weed control at 16 g/ha [3, 18] was 0%. The pest or weed control at 31 g/ha [3, 19] was 0%, the pest or weed control at 62 g/ha [3, 20] was 30% and the pest or weed control at 125 g/ha [3, 21] was 60%. It also gave a pest or weed control at 8 g/ha [4, 12] of 0%, a pest or weed control at 16 g/ha [4, 14] of 0% and a pest or weed control at 31 g/ha [4, 15] of 5%. For the same compound, the pest or weed control at 62 g/ha [4, 16] was 10%, the pest or weed control at 125 g/ha [4, 17] was 10% and the pest or weed control at 8 g/ha [4, 13] was 0%. The pest or weed control at 16 g/ha [4, 18] was 0%, the pest or weed control at 31 g/ha [4, 19] was 0% and the pest or weed control at 62 g/ha [4, 20] was 0%. The pest or weed control at 125 g/ha [4, 21] was 0%, the pest or weed control at 8 g/ha ([5]; 8 g ai/ha Preemergence) was 20% and the pest or weed control at 16 g/ha ([5]; 16 g ai/ha, Preemergence) was 25%. It also gave a pest or weed control at 31 g/ha ([5]; 31 g ai/ha, Preemergence) of 50%, a pest or weed control at 125 g/ha ([5]; 125 g ai/ha, Preemergence) of 100% and a pest or weed control at 62 g/ha ([5]; Preemergence) of 80%. The pest or weed control at 8 g/ha ([6]; 8 g ai/ha Preemergence) was 0%, the pest or weed control at 16 g/ha ([6]; 16 g ai/ha Preemergence) was 50% and the pest or weed control at 31 g/ha ([6]; 31 g ai/ha Preemergence) was 85%. The pest or weed control at 62 g/ha ([6]; 62 g ai/ha Preemergence) was 95%, the pest or weed control at 125 g/ha ([6]; 125 g ai/ha Preemergence) was 100% and the pest or weed control at 8 g/ha ([7]; 8 g ai/ha Preemergence) was 0%. For the same compound, the pest or weed control at 16 g/ha ([7]; 16 g ai/ha Preemergence) was 35%, the pest or weed control at 31 g/ha ([7]; 31 g ai/ha Preemergence) was 60% and the pest or weed control at 125 g/ha ([7]; 125 g ai/ha Preemergence) was 98%. The pest or weed control at 62 g/ha ([7]; Preemergence) was 98%, the pest or weed control at 8 g/ha ([8]; 8 g ai/ha Preemergence) was 0% and the pest or weed control at 16 g/ha ([8]; 16 g ai/ha Preemergence) was 0%. It also gave a pest or weed control at 31 g/ha ([8]; 31 g ai/ha Preemergence) of 10%, a pest or weed control at 125 g/ha ([8]; 125 g ai/ha Preemergence) of 40% and a pest or weed control at 62 g/ha ([8]; Preemergence) of 35%. It also gave a pest or weed control at 8 g/ha ([9]; 8 g ai/ha Preemergence) of 0%, a pest or weed control at 16 g/ha ([9]; 16 g ai/ha Preemergence) of 0% and a pest or weed control at 31 g/ha ([9]; 31 g ai/ha Preemergence) of 0%. For the same compound, the pest or weed control at 125 g/ha ([9]; 125 g ai/ha Preemergence) was 35%, the pest or weed control at 62 g/ha ([9]; Preemergence) was 10% and the pest or weed control at 8 g/ha ([10]; 8 g ai/ha Preemergence) was 0%. It also gave a pest or weed control at 16 g/ha ([10]; 16 g ai/ha Preemergence) of 25%, a pest or weed control at 31 g/ha ([10]; 31 g ai/ha Preemergence) of 80% and a pest or weed control at 125 g/ha ([10]; 125 g ai/ha Preemergence) of 100%. It also gave a pest or weed control at 62 g/ha ([10]; Preemergence) of 100%, a pest or weed control at 8 g/ha ([11]; 8 g ai/ha Preemergence) of 0% and a pest or weed control at 16 g/ha ([11]; 16 g ai/ha Preemergence) of 0%. It also gave a pest or weed control at 31 g/ha ([11]; 31 g ai/ha Preemergence) of 0%, a pest or weed control at 125 g/ha ([11]; 125 g ai/ha Preemergence) of 35% and a pest or weed control at 62 g/ha ([11]; Preemergence) of 10%.

Source: patent US10131652B2, “Pyrimidinyloxy benzene derivatives as herbicides” (E. I. DU PONT DE NEMOURS AND COMPANY, priority 2014, dated 2018)
